Reference: article PMC10916623, “Tissue distribution and pharmacokinetics of isoxanthohumol from hops in rodents” (Food Science & Nutrition, 2023)
Marks after values point to notes of the source that are not given here.

Legend:
[1] = Tissue distribution after single-gavage administration of IXA to mice; format: in vivo, C57/BL6 mice; conditions: mice; for IXA accumulation, single-ingestion test (at 24 h): single IXA 50 mg/kg BW
Procedure: Six‐week‐old male C57/BL6 mice (initial BW: 19–24 g; Japan SLC, Shizuoka, Japan) were housed in a room maintained at 23–26°C with a 12‐h light–dark cycle. During the 1‐week acclimatization period, they were allowed free access to a commercial diet (Oriental Yeast Co., Tokyo, Japan) and water. Two days before the experiment, they were fed AIN‐93M (Oriental Yeast Co.). Before drug administration, they were fasted for 20 h, but had free access to water. IXA dissolved in 3% hydroxypropyl‐β‐cyclodextrin and 5% ethanol (Fujifilm; Wako Pure Chemical Corp., Osaka, Japan) was named the injection solution and administered (50 mg/kg BW) to mice intragastrically using a gastric feeding tube (AS ONE, Osaka, Japan). Blood, brain, thymus, heart, lung, liver, spleen, pancreas, kidney, and gastrocnemius muscle were collected 0.5, 1, 2, 4, 8, 12, 24, and 48 h after administration. We also set up a control group, and mice in this group were sacrificed just before we started administering IXA at 0 h. At 4 h after administration, mice were allowed free access to AIN‐93 M. Plasma was isolated by centrifugation at 17 × 10^3 m/s^2 (5911, Kubota, Tokyo, Japan) for 5 min at 4°C. All tissues were dissected, weighed, and immediately frozen in liquid nitrogen. All samples were stored at −80°C until analysis.
Tissue sample deconjugation was performed as described in a previous report with slight modifications (Tanaka et al., [2022]). Tissues were homogenized in phosphate‐buffered saline (pH 7.4), which was nine times the tissue volume. The tissue homogenate was incubated in 50 mmol/L ascorbic acid (one‐fifth the volume of phosphate‐buffered saline) and 1.67 μkat/100 μL of β‐glucuronidase type H‐1 in 0.1 mol/L sodium acetate buffer (pH 4.7, nine times the volume of the sample) for 2 h at 37°C. Then, 2.4 nmol of QTM was added to samples as an internal standard. The supernatant was isolated by centrifugation at 17 × 10^3 m/s^2 (Kubota) for 5 min at 4°C. Then, methanol (Kanto Kagaku, 25183‐2B) was added to the pellets, and they were shaken for 1 min. The methanol layer and pellets were separated by centrifugation at 17 × 10^3 m/s^2 (Kubota, RY1071‐A000) for 5 min at 4°C. Methanol extraction was repeated three times. Finally, methanol extracts were mixed with the supernatant (the composition of the mixture was 30% methanol) and then applied to an Inert Sep C8 (200 mg/3 mL; GL Sciences, Tokyo, Japan; 5010‐61082) cartridge. The cartridge was preconditioned with 6 mL of 2% acetic acid in methanol, and then 9 mL of 2% acetic acid in water. The extracted tissue was passed through the cartridge, and it was washed with 5 mL of 2% acetic acid in 30% methanol aq. The flavonoids were eluted with 10 mL of 2% acetic acid in methanol.
The plasma and tissue extracts were evaporated using a Centrifugal Evaporator (EYERA, Tokyo, Japan, CVE‐3000). The samples were stored at −80°C until the next day. Then, the samples were dissolved in 120 μL of a mobile phase solution and divided into two test tubes. The first sample was injected into the HPLC with an ultraviolet detection system (Shimadzu, Kyoto, Japan).
IXA and 8‐PN concentrations were determined by their respective standard curves using an internal standard method. A Cadenza 3‐μm CD‐C18 HPLC column (CD005, 150 × 4.6 mm; Imtakt Corporation, Kyoto, Japan) was equipped for HPLC (λ = 295 nm). The mobile phase consisted of methanol:water:acetic acid (60:35:5, v/v/v). The flow rate was set at 1.0 mL/min. […] Because clear peaks over 4.5 pmol/sample were detected for IXA and 8‐PN by visual evaluation, we determined that these concentrations were the peak limit of detections for each flavonoid. We applied calibration curves in the IXA/QTM concentration ratio range of 0.007–35.1 (R ^2 = .9955).

[2] = set-up: method as in Possemiers et al., 2008; conditions: ref Possemiers et al., 2008; cited from earlier work
[3] = kidney, single oral IXA 50 mg/kg BW
[4] = lung, single oral IXA 50 mg/kg BW

For “4,7‐dihydroxy‐5‐methoxy‐8‐prenylflavanone [IXA]”, the “IXA detection in the brain” value ([1]; brain, single oral IXA 50 mg/kg BW, data not shown) was “not detected”, the “time of second peak of IXA” value ([1]; heart, single oral IXA 50 mg/kg BW) was 4 h and the “C max IXA” value ([1]; heart, single oral IXA 50 mg/kg BW, measured at 0.5 h) was 3.3 ± 1.0^b,c nmol/g of tissue. The “IXA accumulation, single-ingestion test (at 24 h)” value (from here on “IXA accumulation”) ([1]; kidney) was 4.6 ± 0.3 nmol/g of tissue, the “time of second peak of IXA” value [1, 3] was 8 h and the “IXA level at 48 h after ingestion” value [1, 3] was 2.67 ± 0.41 nmol/g tissue. The “C max IXA” value ([1]; kidney, single oral IXA 50 mg/kg BW, measured at 1 h) was 25.5 ± 5.3^a,b nmol/g of tissue, the “IXA accumulation” value ([1]; liver) was 3.2 ± 1.3 nmol/g of tissue and the “IXA level at 48 h after ingestion” value ([1]; liver, single oral IXA 50 mg/kg BW) was 0.14 ± 0.12 nmol/g tissue. The “C max IXA” value ([1]; liver, single oral IXA 50 mg/kg BW, measured at 1 h) was 76.2 ± 32.4^a nmol/g of tissue, the “IXA accumulation” value ([1]; lung) was 1.7 ± 1.5 nmol/g of tissue and the “time of second peak of IXA” value [1, 4] was 2 h. For the same substance, the “IXA level at 48 h after ingestion” value [1, 4] was 0.05 ± 0.04 nmol/g tissue, the “C max IXA” value ([1]; lung, single oral IXA 50 mg/kg BW, measured at 0.5 h) was 5.3 ± 3.3^b,c nmol/g of tissue and the “IXA accumulation” value ([1]; muscle) was 0.1 ± 0.1 nmol/g of tissue. The “C max IXA” value ([1]; muscle, single oral IXA 50 mg/kg BW, measured at 0.5 h) was 3.4 ± 1.3^b,c nmol/g of tissue, the “time of second peak of IXA” value ([1]; pancreas, single oral IXA 50 mg/kg BW) was 12 h and the “C max IXA” value ([1]; pancreas, single oral IXA 50 mg/kg BW, measured at 0.5 h) was 22.4 ± 2.1^b,c nmol/g of tissue. The “time of second peak of IXA” value ([1]; skeletal muscle, single oral IXA 50 mg/kg BW) was 12 h, the “IXA accumulation” value ([1]; spleen) was 1.1 ± 1.0 nmol/g of tissue and the “time of second peak of IXA” value ([1]; spleen, single oral IXA 50 mg/kg BW) was 4 h. For the same substance, the “C max IXA” value ([1]; spleen, single oral IXA 50 mg/kg BW, measured at 0.5 h) was 6.5 ± 2.2^b,c nmol/g of tissue, the “IXA accumulation” value ([1]; thymus) was 3.6 ± 3.1 nmol/g of tissue and the “time of second peak of IXA” value ([1]; thymus, single oral IXA 50 mg/kg BW) was 4 h. The “C max IXA” value ([1]; thymus, single oral IXA 50 mg/kg BW, measured at 0.5 h) was 6.5 ± 4.1^b,c nmol/g of tissue and the “rate of excretion into the feces” value [2] was “approximately 47%”.
